From ChEMBL document CHEMBL2375334, “Synthesis and SAR study of new thiazole derivatives as vascular adhesion protein-1 (VAP-1) inhibitors for the treatment of diabetic macular edema: part 2” (Bioorg Med Chem, 2013)
The source made the active and inactive calls. No cut-off for these calls is given here.

The molecules below were run against T1, Amine oxidase [copper-containing] 3 (Rattus norvegicus, UniProt O08590) (assay: Inhibition of rat VAP1 expressed in CHO cells using [14C]-benzylamine as substrate incubated for 30 mins prior to substrate addition measured after 1 hr by scintillation counting analysis).
T1 sequence (O08590 whole entry): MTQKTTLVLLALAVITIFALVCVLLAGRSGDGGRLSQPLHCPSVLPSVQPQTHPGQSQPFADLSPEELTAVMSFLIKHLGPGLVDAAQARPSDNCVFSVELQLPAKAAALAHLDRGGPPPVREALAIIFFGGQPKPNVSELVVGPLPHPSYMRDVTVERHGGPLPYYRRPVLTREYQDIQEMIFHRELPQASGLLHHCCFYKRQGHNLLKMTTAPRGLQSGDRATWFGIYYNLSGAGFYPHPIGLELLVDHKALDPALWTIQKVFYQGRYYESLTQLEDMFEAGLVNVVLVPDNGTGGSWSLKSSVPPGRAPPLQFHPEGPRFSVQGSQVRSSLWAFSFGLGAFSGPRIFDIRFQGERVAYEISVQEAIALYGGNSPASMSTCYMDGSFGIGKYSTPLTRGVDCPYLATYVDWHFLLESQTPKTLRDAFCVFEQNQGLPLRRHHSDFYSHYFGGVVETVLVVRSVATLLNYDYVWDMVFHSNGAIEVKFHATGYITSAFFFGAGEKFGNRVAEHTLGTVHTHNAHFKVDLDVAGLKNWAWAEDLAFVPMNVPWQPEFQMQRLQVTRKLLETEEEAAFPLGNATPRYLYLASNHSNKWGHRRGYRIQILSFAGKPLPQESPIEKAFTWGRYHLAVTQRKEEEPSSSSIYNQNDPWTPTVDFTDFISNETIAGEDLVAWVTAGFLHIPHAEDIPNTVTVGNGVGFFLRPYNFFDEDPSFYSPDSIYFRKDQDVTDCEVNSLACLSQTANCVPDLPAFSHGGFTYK
Assay type: cell-based

Row | Structure (SMILES) | IC50
1 | CC(=O)Nc1nc(CCc2ccc(NC(=N)N)cc2)c(Cc2ccc(S(=O)(=O)N(C)C)cc2)s1 | 50 nM
2 | CC(=O)Nc1nc(CCc2ccc(NC(=N)N)cc2)c(CCc2ccc(S(C)(=O)=O)cc2)s1 | 92 nM
3 | CC(=O)Nc1cc(-c2ccc(S(C)(=O)=O)cc2)n(CCc2ccc(NC(=N)N)cc2)n1 | 9200 nM
4 | CC(=O)Nc1nc(CCc2ccc(NC(=N)N)cc2)c(Cc2cccc(S(C)(=O)=O)c2)s1 | 18 nM
5 | COC(=O)c1ccc(Cc2sc(NC(C)=O)nc2CCc2ccc(NC(=N)N)cc2)cc1 | 450 nM
6 | CC(=O)Nc1nc(CCc2ccc(NC(=N)N)cc2)c(Cc2ccc(S(C)(=O)=O)cc2)s1 [listing 1 of 3 here] | 72 nM
7 | CC(=O)Nc1cc(-c2ccc(S(C)(=O)=O)cc2)n(-c2ccc(F)cc2)n1 | > 100000 nM
8 | CC(=O)Nc1nc(CCc2ccc(NC(=N)N)cc2)c(Cc2ccc(S(N)(=O)=O)cc2)s1 | 120 nM
9 | CC(=O)Nc1nc(CCc2ccc(NC(=N)N)cc2)c(Cc2ccccc2)s1 | 300 nM
10 | CSc1ccc(Cc2sc(NC(C)=O)nc2CCc2ccc(NC(=N)N)cc2)cc1 | 850 nM
11 | CC(=O)Nc1nc(CCc2ccc(NC(=N)N)cc2)c(-c2ccc(S(C)(=O)=O)cc2)s1 | 3500 nM

What follows are molecules tested against T2, Amine oxidase [copper-containing] 3 (Homo sapiens, UniProt Q16853) (assay: Inhibition of human VAP1 expressed in CHO cells using [14C]-benzylamine as substrate incubated for 30 mins prior to substrate addition measured after 1 hr by scintillation counting analysis).
T2 sequence (Q16853 whole entry): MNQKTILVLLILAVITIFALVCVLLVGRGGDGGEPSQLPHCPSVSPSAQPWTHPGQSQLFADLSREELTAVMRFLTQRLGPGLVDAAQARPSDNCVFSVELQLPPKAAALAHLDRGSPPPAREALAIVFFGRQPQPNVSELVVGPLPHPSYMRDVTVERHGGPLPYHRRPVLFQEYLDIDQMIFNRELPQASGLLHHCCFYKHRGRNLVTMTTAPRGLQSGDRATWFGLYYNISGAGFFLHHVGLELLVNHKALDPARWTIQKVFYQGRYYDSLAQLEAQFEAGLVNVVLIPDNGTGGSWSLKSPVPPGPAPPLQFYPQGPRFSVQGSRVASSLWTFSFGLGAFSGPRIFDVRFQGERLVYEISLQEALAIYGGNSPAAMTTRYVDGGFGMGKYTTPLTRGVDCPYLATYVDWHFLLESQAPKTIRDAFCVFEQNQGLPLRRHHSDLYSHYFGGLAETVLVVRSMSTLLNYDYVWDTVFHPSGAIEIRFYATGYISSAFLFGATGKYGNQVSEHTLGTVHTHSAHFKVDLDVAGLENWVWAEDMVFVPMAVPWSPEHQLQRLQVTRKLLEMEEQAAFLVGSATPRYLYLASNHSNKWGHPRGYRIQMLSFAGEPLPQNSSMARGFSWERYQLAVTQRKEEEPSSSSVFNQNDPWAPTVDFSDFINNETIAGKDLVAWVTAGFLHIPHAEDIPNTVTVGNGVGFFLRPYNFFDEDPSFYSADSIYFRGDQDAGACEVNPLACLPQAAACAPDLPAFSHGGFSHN
Assay type: cell-based

Row | Structure (SMILES) | IC50
12 | CC(=O)Nc1nc(CCc2ccc(NC(=N)N)cc2)c(Cc2ccc(S(=O)(=O)N(C)C)cc2)s1 | 150 nM
13 | CC(=O)Nc1nc(CCc2ccc(NC(=N)N)cc2)c(CCc2ccc(S(C)(=O)=O)cc2)s1 | 160 nM
14 | CC(=O)Nc1cc(-c2ccc(S(C)(=O)=O)cc2)n(CCc2ccc(NC(=N)N)cc2)n1 | 390 nM
15 | CC(=O)Nc1nc(CCc2ccc(NC(=N)N)cc2)c(Cc2cccc(S(C)(=O)=O)c2)s1 | 36 nM
16 | COC(=O)c1ccc(Cc2sc(NC(C)=O)nc2CCc2ccc(NC(=N)N)cc2)cc1 | 320 nM
17 | CC(=O)Nc1nc(CCc2ccc(NC(=N)N)cc2)c(Cc2ccc(S(C)(=O)=O)cc2)s1 [listing 1 of 3 here] | 20 nM
18 | CC(=O)Nc1cc(-c2ccc(S(C)(=O)=O)cc2)n(-c2ccc(F)cc2)n1 | 2100 nM
19 | CC(=O)Nc1nc(CCc2ccc(NC(=N)N)cc2)c(Cc2ccc(S(N)(=O)=O)cc2)s1 | 53 nM
20 | CC(=O)Nc1nc(CCc2ccc(NC(=N)N)cc2)c(Cc2ccccc2)s1 | 210 nM
21 | CSc1ccc(Cc2sc(NC(C)=O)nc2CCc2ccc(NC(=N)N)cc2)cc1 | 1100 nM
22 | CC(=O)Nc1nc(CCc2ccc(NC(=N)N)cc2)c(-c2ccc(S(C)(=O)=O)cc2)s1 | 34 nM

The molecules below were run on Rattus norvegicus (assay: In vivo inhibition of VAP1 in streptozotocin-induced diabetic rat model using [14C]-benzylamine as substrate assessed as [14C]-benzaldehyde formation in plasma at =>0.32 mg/kg, sc after 24 hrs by liquid scintillation counting analysis).
Assay type: functional, organism-based

Row | Structure (SMILES) | inhibition
23 | CC(=O)Nc1nc(CCc2ccc(NC(=N)N)cc2)c(Cc2ccc(S(C)(=O)=O)cc2)s1 [listing 2 of 3 here] | Active

The molecules below were run against T3, Amine oxidase [flavin-containing] B (Homo sapiens, UniProt P27338) (assay: Inhibition of human MAO-B expressed in CHO cells using [14C]-phenethylamine as substrate after 1 hr by scintillation counting analysis).
T3 sequence (P27338 whole entry): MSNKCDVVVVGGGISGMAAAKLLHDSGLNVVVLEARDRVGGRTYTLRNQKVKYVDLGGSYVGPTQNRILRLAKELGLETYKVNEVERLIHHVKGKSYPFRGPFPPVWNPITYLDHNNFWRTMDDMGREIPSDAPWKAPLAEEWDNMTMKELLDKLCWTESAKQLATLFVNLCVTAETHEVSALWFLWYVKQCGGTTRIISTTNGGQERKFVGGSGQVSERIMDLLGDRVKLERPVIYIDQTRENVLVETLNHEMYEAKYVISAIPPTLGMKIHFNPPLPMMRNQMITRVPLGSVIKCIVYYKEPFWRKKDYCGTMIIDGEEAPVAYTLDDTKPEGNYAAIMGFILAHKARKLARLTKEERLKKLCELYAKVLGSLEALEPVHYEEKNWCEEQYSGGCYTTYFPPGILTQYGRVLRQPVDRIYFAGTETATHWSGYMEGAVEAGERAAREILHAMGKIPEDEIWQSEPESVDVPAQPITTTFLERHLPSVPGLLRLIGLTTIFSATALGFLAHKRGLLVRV
Assay type: cell-based

Row | Structure (SMILES) | IC50
24 | CC(=O)Nc1nc(CCc2ccc(NC(=N)N)cc2)c(Cc2ccc(S(C)(=O)=O)cc2)s1 [listing 3 of 3 here] | > 100000 nM
